Reference: EP4212633A1 (priority 2022, dated 2023)

Legend:
SARS-CoV-2 = conditions: Wang et al., 2020, Zhang et al.; cited from earlier work
[1] = at higher concentrations; Borba et al., 2020; cited from earlier work
SARS-CoV-2 pseudoknot = assay: ligand observed fluorescence titrations (binding to the pseudoknot); conditions: for Kd: binding to the pseudoknot structure, Figure 3
pseudoknot RNA [2] = assay: 1H,15N-HSQC NMR experiments (chemical shift perturbation, binding site mapping); design: species or system SARS-CoV-2
pseudoknot RNA [3] = assay: inline probing experiments; format: binding, SARS-CoV-2
COVID-19 = conditions: Cao et al., 2020; cited from earlier work

CC(C)(C)OC(=O)Nc1cccn([C@@H](CC2CC2)C(=O)N[C@@H](C[C@@H]2CCNC2=O)C(=O)C(=O)NCc2ccccc2)c1=O [α-ketoamide-Inhibitor 13b]
antiviral activity (SARS-CoV-2): low micromolar range

NC(=O)c1ncn([C@@H]2O[C@H](CO)[C@@H](O)[C@H]2O)n1 [Ribavirin]
antiviral activity (SARS-CoV-2): two- or three-digit micromolar range

CCN(CC)CCCC(C)Nc1ccnc2cc(Cl)ccc12 (stereo not drawn) [chloroquine]
side-effects [1]: heart arrhythmia

Cc1ccc(C)n1CCC(=O)Nc1ccc2nc[nH]c(=O)c2c1 [D05, 3-(2,5-dimethyl-1H-pyrrol-1-yl)-N-(4-oxo-3,4-dihydroquinazolin-6-yl)propanamide]
Kd (SARS-CoV-2 pseudoknot): 140 µM
interactions with the RNA in NMR experiments (pseudoknot RNA [2]): showed interactions with the RNA
interactions with the RNA in in-line probing experiments (pseudoknot RNA [3]): showed interactions with the RNA

COc1ccc(-c2cc(-c3ccncc3)nc(N3C[C@H](N)C[C@H](N)C3)n2)cc1 [D01+DAP, (3R,5S)-1-(4-(4-methoxyphenyl)-6-(pyridin-4-yl)pyrimidin-2-yl)piperidine-3,5-diamine]
Kd (SARS-CoV-2 pseudoknot): 0.3 µM
binding affinity to the SARS-CoV-2 pseudoknot (ranking among evaluated derivatives) (SARS-CoV-2 pseudoknot; ligand observed fluorescence titrations, Figures 3 and 14): highest binding affinity
binding site from chemical shift perturbation and decreasing signal intensity (pseudoknot RNA [2]; addition of ligand to pseudoknot RNA, Figure 4A): confirmed one of the binding hot spots (HS2) as a binding site
interaction in inline probing (pseudoknot RNA [3]; Figure 4B): interaction of D01+DAP and the pseudoknot RNA in the predicted HS1 and the loop region (L2)

NC(=O)c1nc(F)cnc1O [favipavir]
antiviral activity (SARS-CoV-2): two- or three-digit micromolar range

Cc1cccc(C)c1OCC(=O)N[C@@H](Cc1ccccc1)[C@@H](O)C[C@H](Cc1ccccc1)NC(=O)[C@H](C(C)C)N1CCCNC1=O [lopinavir]
effect in clinical tests (COVID-19): no effect
